The EC50 is the concentration giving half of the maximal effect. As usually defined, the Kb is the equilibrium dissociation constant of an antagonist, usually derived from a functional assay. Low readings indicate a more potent antagonist, high ones a less potent antagonist.

Test [1] has as its target T1, mouse MC5R (Mus musculus, UniProt P41149). The note with it: for mMC5R inverse agonist, percent change from basal at 100 μM / mMC5R percent maximal stimulatory response at 100 μM: 100000.0; for MC5R activity in words: up to 100 μM.
The target in test [2] is T2, mouse MC1R (Mus musculus, UniProt Q01727). Briefly: cell-based.
T2 sequence (Q01727 whole entry): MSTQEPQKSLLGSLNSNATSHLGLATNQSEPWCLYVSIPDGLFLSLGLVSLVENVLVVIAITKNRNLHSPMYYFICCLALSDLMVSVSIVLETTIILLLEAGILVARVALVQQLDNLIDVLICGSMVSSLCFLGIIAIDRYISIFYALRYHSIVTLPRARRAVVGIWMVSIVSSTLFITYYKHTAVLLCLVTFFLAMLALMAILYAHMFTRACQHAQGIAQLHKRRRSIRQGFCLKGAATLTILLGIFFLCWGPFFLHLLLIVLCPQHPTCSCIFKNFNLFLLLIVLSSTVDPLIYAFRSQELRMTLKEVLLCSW
In test [3] the target is mouse melanocortin-3 receptor (mouse) (UniProt P33033).
Chain of mouse melanocortin-3 receptor (mouse) (P33033 whole entry): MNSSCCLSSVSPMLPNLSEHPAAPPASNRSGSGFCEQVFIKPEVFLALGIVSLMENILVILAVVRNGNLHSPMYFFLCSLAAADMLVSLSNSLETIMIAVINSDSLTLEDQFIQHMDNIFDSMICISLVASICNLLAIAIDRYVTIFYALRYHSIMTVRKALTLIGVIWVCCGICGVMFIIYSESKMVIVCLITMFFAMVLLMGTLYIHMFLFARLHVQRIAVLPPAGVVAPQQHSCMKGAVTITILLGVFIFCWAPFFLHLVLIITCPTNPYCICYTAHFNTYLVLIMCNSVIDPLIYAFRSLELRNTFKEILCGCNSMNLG
In test [4] the target is mouse melanocortin-4 receptor (mouse) (UniProt P56450).
Chain of mouse melanocortin-4 receptor (mouse) (P56450 whole entry): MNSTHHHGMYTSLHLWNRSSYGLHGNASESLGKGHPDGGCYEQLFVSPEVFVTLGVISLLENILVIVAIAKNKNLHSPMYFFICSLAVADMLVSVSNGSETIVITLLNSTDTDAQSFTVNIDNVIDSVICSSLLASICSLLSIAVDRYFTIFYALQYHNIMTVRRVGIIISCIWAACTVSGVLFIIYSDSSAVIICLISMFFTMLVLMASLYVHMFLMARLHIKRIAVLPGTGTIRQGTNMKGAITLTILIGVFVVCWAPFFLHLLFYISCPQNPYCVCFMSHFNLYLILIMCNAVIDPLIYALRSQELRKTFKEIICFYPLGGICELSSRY
The target of test [5] is T3, mouse MC3R (Mus musculus, UniProt P33033). The note with it: for MC3R activity in words: agonist (up to 100 μM) and antagonist activity at the concentrations assayed; for mMC3R percent maximal stimulatory response at 100 μM: 100000.0.
T3 sequence (P33033 whole entry): as the sequence (P33033 whole entry) above
For test [6], the target named is T3, mouse MC3R. Briefly: cell-based.
Test [7] concerns the target T1, mouse MC5R. Briefly: cell-based.
Test [8] has as its target T3, mouse MC3R. Briefly: cAMP AlphaScreen antagonist assay. On the technique in general: Alpha assays give light when donor and acceptor beads are brought close together.
Test [9] deals with T2, mouse MC1R. To be noted: for mMC1R percent maximal stimulatory response at 100 μM: 100000.0; for MC1R potency increase compared to the starting ligand 2: agonist potency relative to 2.
Test [10] addresses T4, mouse MC4R (Mus musculus, UniProt P56450). Briefly: cAMP AlphaScreen agonist assay, HEK293 cells stably expressing mouse MC4R. The note with it: agonist (up to 100 μM) and antagonist activity at the concentrations assayed.
Test [11] has as its target T4, mouse MC4R. Briefly: cAMP AlphaScreen antagonist assay. The note with it: highest assayed concentrations.
Test [12] has as its target mouse melanocortin-5 receptor (mouse) (UniProt P41149).

T4 sequence (P56450 whole entry): as the sequence (P56450 whole entry) above
T1 sequence (P41149 whole entry): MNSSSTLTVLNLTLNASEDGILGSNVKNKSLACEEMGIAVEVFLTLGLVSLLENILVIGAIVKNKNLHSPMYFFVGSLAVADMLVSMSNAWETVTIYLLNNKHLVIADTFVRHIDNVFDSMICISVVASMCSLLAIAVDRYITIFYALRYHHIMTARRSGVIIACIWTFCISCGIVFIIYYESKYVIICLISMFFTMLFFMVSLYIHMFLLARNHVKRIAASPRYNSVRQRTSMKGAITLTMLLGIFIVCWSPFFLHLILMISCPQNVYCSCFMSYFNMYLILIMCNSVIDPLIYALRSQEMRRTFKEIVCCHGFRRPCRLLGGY
Chain of mouse melanocortin-5 receptor (mouse) (P41149 whole entry): as above

For `C[C@@H]1NC(=O)[C@H](CC(N)=O)NC(=O)[C@H](Cc2ccccc2)NC(=O)[C@@H](Cc2ccccc2)NC(=O)[C@H](CCCNC(=N)N)NC(=O)[C@@H]2CCCN2C(=O)[C@H]2CCCN2C(=O)[C@H](Cc2ccccc2)NC1=O` [Peptide 4, c[Pro-Arg-DPhe-Phe-Asn-Ala-Phe-DPro]], in test [1], the “mMC5R inverse agonist, percent change from basal at 100 μM” value (“mMC5R inverse agonist, percent change” below) is given as 25% and the “MC5R activity in words” value was “apparent inverse agonist activity”. In [2], this molecule showed an EC50 of 700 nM.
Turning to “c[Pro-DArg-DPhe-Phe-Dap-Ala-Phe-DPro] (peptide)”, the agonist EC50; cAMP AlphaScreen, HEK293 cells stably expressing mouse MC3R in [3] is above 100 µM. For the same molecule, in test [4], the agonist EC50; cAMP AlphaScreen, HEK293 cells stably expressing mouse MC4R is above 100 µM.
Regarding `C[C@@H]1NC(=O)[C@H](CN)NC(=O)[C@@H](Cc2ccccc2)NC(=O)[C@H](Cc2ccccc2)NC(=O)[C@H](CCCNC(=N)N)NC(=O)[C@@H]2CCCN2C(=O)[C@H]2CCCN2C(=O)[C@H](Cc2ccccc2)NC1=O` [Peptide 12, c[Pro-Arg-Phe-DPhe-Dap-Ala-Phe-DPro]], the “MC3R activity in words” value in test [5] is recorded as “No activity was observed”. For the same molecule, the “MC5R activity in words” value in test [1] was “No activity was observed”. The EC50 in test [2] was 800 nM; in test [6], above 100 µM; in [7] it was above 100 µM. The Kb in test [8] is above 3160 nM.
Regarding `C[C@@H]1NC(=O)[C@H](CN)NC(=O)[C@@H](Cc2ccccc2)NC(=O)[C@H](Cc2ccccc2)NC(=O)[C@@H](CCCNC(=N)N)NC(=O)[C@@H]2CCCN2C(=O)[C@H]2CCCN2C(=O)[C@H](Cc2ccccc2)NC1=O` [Peptide 14, c[Pro-DArg-Phe-DPhe-Dap-Ala-Phe-DPro]], the “mMC5R inverse agonist, percent change” value in [1] is listed as 20%. Moreover, in test [1], the “MC5R activity in words” value is “apparent inverse agonist activity”. The results for the EC50 in test [2] and in test [6] were 450 nM and above 100 µM, respectively. For the same molecule, the Kb in test [8] is 2000 nM.
In the case of `C[C@@H]1NC(=O)[C@H](CN)NC(=O)[C@@H](Cc2ccccc2)NC(=O)[C@@H](Cc2ccccc2)NC(=O)[C@@H](CCCNC(=N)N)NC(=O)[C@@H]2CCCN2C(=O)[C@H]2CCCN2C(=O)[C@H](Cc2ccccc2)NC1=O` [Peptide 16, c[Pro-DArg-DPhe-DPhe-Dap-Ala-Phe-DPro]], in test [5], the “MC3R activity in words” value was “no activity”. In [1], the “mMC5R inverse agonist, percent change” value came to 15% and the “MC5R activity in words” value is reported as “apparent inverse agonist activity”. The EC50 in test [2] was 2200 nM. This molecule yielded an EC50 in test [6] above 100 µM. Moreover, the Kb in test [8] is above 3160 nM.
Take `C[C@@H]1NC(=O)[C@H](CC(N)=O)NC(=O)[C@@H](Cc2ccccc2)NC(=O)[C@H](Cc2ccccc2)NC(=O)[C@H](CCCNC(=N)N)NC(=O)[C@@H]2CCCN2C(=O)[C@H]2CCCN2C(=O)[C@H](Cc2ccccc2)NC1=O` [Peptide 5, c[Pro-Arg-Phe-DPhe-Asn-Ala-Phe-DPro]]: the “mMC1R percent maximal stimulatory response at 100 μM” value in test [9] was determined as 50%. Also, the “MC4R activity in words” value in [10] was “loss of agonist and antagonist activities”.
Take `C[C@@H]1NC(=O)[C@H](CN)NC(=O)[C@H](Cc2ccccc2)NC(=O)[C@H](Cc2ccccc2)NC(=O)[C@@H](CCCNC(=N)N)NC(=O)[C@@H]2CCCN2C(=O)[C@H]2CCCN2C(=O)[C@H](Cc2ccccc2)NC1=O` [Peptide 10, c[Pro-DArg-Phe-Phe-Dap-Ala-Phe-DPro]]: in [9], the “mMC1R percent maximal stimulatory response at 100 μM” value worked out at 25%. Further, the “mMC3R percent maximal stimulatory response at 100 μM” value in [5] came to 25%. The “MC5R activity in words” value in test [1] is recorded as “no activity was observed”. This molecule also had an EC50 in test [7] above 100 µM. The Kb in test [8] is 2000 nM.
In the case of `C[C@@H]1NC(=O)[C@H](CC(N)=O)NC(=O)[C@@H](Cc2ccccc2)NC(=O)[C@H](Cc2ccccc2)NC(=O)[C@@H](CCCNC(=N)N)NC(=O)[C@@H]2CCCN2C(=O)[C@H]2CCCN2C(=O)[C@H](Cc2ccccc2)NC1=O` [Peptide 7, c[Pro-DArg-Phe-DPhe-Asn-Ala-Phe-DPro]], in [5], the “mMC3R percent maximal stimulatory response at 100 μM” value was found to be 35%. The “MC5R activity in words” value in [1] is “full agonist”. Besides, the “MC4R antagonist activity in words” value in test [11] was “did not possess antagonist activity”.
In turn, “c[Pro-Arg-DPhe-Phe-Dap-Ala-Phe-DPro] (peptide)” yielded an agonist EC50; cAMP AlphaScreen, HEK293 cells stably expressing mouse MC3R in [3] above 100 µM. The molecule further yielded an agonist EC50; cAMP AlphaScreen, HEK293 cells stably expressing mouse MC5R in test [12] above 100 µM.
With `C[C@@H]1NC(=O)[C@H](CC(N)=O)NC(=O)[C@@H](Cc2ccccc2)NC(=O)[C@@H](Cc2ccccc2)NC(=O)[C@@H](CCCNC(=N)N)NC(=O)[C@@H]2CCCN2C(=O)[C@H]2CCCN2C(=O)[C@H](Cc2ccccc2)NC1=O` [Peptide 9, c[Pro-DArg-DPhe-DPhe-Asn-Ala-Phe-DPro]], in test [5], the “MC3R activity in words” value is listed as “No agonist or antagonist activity was observed”. Besides, the “mMC5R percent maximal stimulatory response at 100 μM” value in test [1] is on record as 55%. Moreover, in test [2], the EC50 was determined as 1300 nM. In addition, the “MC4R activity in words” value in test [10] is reported as “No agonist or antagonist activity was observed”. Moreover, in [11], the “MC4R antagonist activity in words” value is listed as “did not possess antagonist activity”.
On to `C[C@@H]1NC(=O)[C@H](CN)NC(=O)[C@@H](Cc2ccccc2)NC(=O)[C@@H](Cc2ccccc2)NC(=O)[C@H](CCCNC(=N)N)NC(=O)[C@@H]2CCCN2C(=O)[C@H]2CCCN2C(=O)[C@H](Cc2ccccc2)NC1=O` [Peptide 15, c[Pro-Arg-DPhe-DPhe-Dap-Ala-Phe-DPro]], for which, in test [9], the “MC1R potency increase compared to the starting ligand 2” value is > 1,000 fold. Further, the “MC5R activity in words” value in [1] is recorded as “no activity was observed”. For the same molecule, the EC50 in [2] is 700 ± 300 nM; in test [6] it was above 100 µM; in test [7] it was above 100 µM. The same molecule had an antagonist dissociation constant (Kb) in [8] of 2000 nM.
The molecule `C[C@@H]1NC(=O)[C@H](CC(N)=O)NC(=O)[C@@H](Cc2ccccc2)NC(=O)[C@@H](Cc2ccccc2)NC(=O)[C@H](CCCNC(=N)N)NC(=O)[C@@H]2CCCN2C(=O)[C@H]2CCCN2C(=O)[C@H](Cc2ccccc2)NC1=O` [Peptide 8, c[Pro-Arg-DPhe-DPhe-Asn-Ala-Phe-DPro]] gave a half-maximal effective concentration (EC50) in [2] of 800 nM.
Molecule “c[Pro-DArg-DPhe-DPhe-Dap-Ala-Phe-DPro] (peptide)” came in with an agonist EC50; cAMP AlphaScreen, HEK293 cells stably expressing mouse MC3R in test [3] above 100 µM. Besides, in [4], the agonist EC50; cAMP AlphaScreen, HEK293 cells stably expressing mouse MC4R is above 100 µM.
Consider “c[Pro-DArg-Phe-DPhe-Dap-Ala-Phe-DPro] (peptide)”, for which the agonist EC50; cAMP AlphaScreen, HEK293 cells stably expressing mouse MC3R in test [3] was above 100 µM. In addition, the agonist EC50; cAMP AlphaScreen, HEK293 cells stably expressing mouse MC4R in [4] was above 100 µM.
For the molecule `C[C@@H]1NC(=O)[C@H](CC(N)=O)NC(=O)[C@H](Cc2ccccc2)NC(=O)[C@H](Cc2ccccc2)NC(=O)[C@@H](CCCNC(=N)N)NC(=O)[C@@H]2CCCN2C(=O)[C@H]2CCCN2C(=O)[C@H](Cc2ccccc2)NC1=O` [Peptide 3, c[Pro-DArg-Phe-Phe-Asn-Ala-Phe-DPro]], the “MC4R antagonist activity in words” value in test [11] is on record as “did not possess antagonist activity”.
For the molecule “c[Pro-Arg-DPhe-DPhe-Dap-Ala-Phe-DPro] (peptide)”, in [3], the agonist EC50; cAMP AlphaScreen, HEK293 cells stably expressing mouse MC3R was above 100 µM. In test [4], this molecule gave an agonist EC50; cAMP AlphaScreen, HEK293 cells stably expressing mouse MC4R above 100 µM. The molecule further gave an agonist EC50; cAMP AlphaScreen, HEK293 cells stably expressing mouse MC5R in test [12] above 100 µM.
In [12], “c[Pro-DArg-Phe-Phe-Dap-Ala-Phe-DPro] (peptide)” yielded an agonist EC50; cAMP AlphaScreen, HEK293 cells stably expressing mouse MC5R above 100 µM.
In the case of `C[C@@H]1NC(=O)[C@H](CN)NC(=O)[C@H](Cc2ccccc2)NC(=O)[C@@H](Cc2ccccc2)NC(=O)[C@H](CCCNC(=N)N)NC(=O)[C@@H]2CCCN2C(=O)[C@H]2CCCN2C(=O)[C@H](Cc2ccccc2)NC1=O` [Peptide 11, c[Pro-Arg-DPhe-Phe-Dap-Ala-Phe-DPro]], the “MC1R potency increase compared to the starting ligand 2” value in [9] is > 1,000 fold. Besides, the “MC3R activity in words” value in test [5] is given as “No agonist activity was observed”. In test [1], the “MC5R activity in words” value is “No agonist activity was observed”. For the same molecule, the results for the EC50 in [2], in test [6] and in test [7] were 230 ± 80 nM, above 100 µM and above 100 µM, respectively. This molecule had a Kb in [8] of 1200 nM.
Turning to `C[C@@H]1NC(=O)[C@H](CC(N)=O)NC(=O)[C@H](Cc2ccccc2)NC(=O)[C@@H](Cc2ccccc2)NC(=O)[C@@H](CCCNC(=N)N)NC(=O)[C@@H]2CCCN2C(=O)[C@H]2CCCN2C(=O)[C@H](Cc2ccccc2)NC1=O` [Peptide 6, c[Pro-DArg-DPhe-Phe-Asn-Ala-Phe-DPro]], in [5], the “MC3R activity in words” value is given as “No activity was observed”. Also, the “mMC5R percent maximal stimulatory response at 100 μM” value in test [1] is listed as 55%. The same molecule yielded an EC50 in test [2] of 500 nM. In addition, in test [10], the “MC4R activity in words” value is listed as “No activity was observed”. In addition, in [11], the “MC4R antagonist activity in words” value was “did not possess antagonist activity”.
With `C[C@@H]1NC(=O)[C@H](CN)NC(=O)[C@H](Cc2ccccc2)NC(=O)[C@@H](Cc2ccccc2)NC(=O)[C@@H](CCCNC(=N)N)NC(=O)[C@@H]2CCCN2C(=O)[C@H]2CCCN2C(=O)[C@H](Cc2ccccc2)NC1=O` [Peptide 13, c[Pro-DArg-DPhe-Phe-Dap-Ala-Phe-DPro]], in [1], the “mMC5R inverse agonist, percent change” value amounted to 30% and the “MC5R activity in words” value is reported as “apparent inverse agonist activity”. In [2], this molecule registered an EC50 of 800 nM. In test [6], this molecule registered an EC50 above 100 µM. Besides, in test [8], the Kb was 1000 nM.
“c[Pro-Arg-Phe-DPhe-Dap-Ala-Phe-DPro] (peptide)”: the agonist EC50; cAMP AlphaScreen, HEK293 cells stably expressing mouse MC3R in test [3] was above 100 µM. In test [4], this molecule had an agonist EC50; cAMP AlphaScreen, HEK293 cells stably expressing mouse MC4R above 100 µM. In [12], the agonist EC50; cAMP AlphaScreen, HEK293 cells stably expressing mouse MC5R is above 100 µM.

For the origin of these results see publication PMC6339850 (ACS chemical neuroscience, 2018).
